In the supplement of paper PMC10307832:

compound: CC(C)C[C@H](NC(=O)[C@H](CCc1ccccc1)NC(=O)CN1CCOCC1)C(=O)N[C@@H](Cc1ccccc1)C(=O)N[C@@H](CC(C)C)C(=O)[C@@]1(C)CO1 [Carfilzomib] + Nc1nc2[nH]cc(CCc3ccc(C(=O)N[C@@H](CCC(=O)O)C(=O)O)cc3)c2c(=O)[nH]1 [Pemetrexed] (partner 0.2 µM); assay: relative viability (nuclei count vs DMSO), 5 days (fraction); higher = more cells survive; conditions: first compound 0.001 µM
Outline: (§1)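 Nuclei were stained with Hoechst during a one-step fixation (final 0.05% Triton X-100, 1% formaldehyde, 1 ug/ml Hoechst) carried out 5 days after dosing, then counted on 4× images. The cells, lung cancer lines in 1536-well plates, had been dosed by pin tool the day after seeding with one drug alone or a fixed anchor-drug dose plus five library-drug doses (not always all listed) in √10 steps. Relative viability is the nuclei count in treated wells divided by that in vehicle wells, and each value is the median of duplicate plates.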

Cell Line | relative viability
NCI-H1944 | 0.615
NCI-H1975 | 0.281
NCI-H1993 | 0.593
NCI-H2009 | 1.06
NCI-H2023 | 0.237
NCI-H2085 | 0.784
NCI-H2087 | 0.624
NCI-H2126 | 0.612
NCI-H2347 | 0.456
NCI-H2405 | 1.02
NCI-H3122 | 0.194
PC-3 [JPC-3] | 1.04
PC-14 | 0.145
RERF-LC-KJ | 0.444

same assay, conditions: first compound 0.003162 µM

Cell Line | relative viability
NCI-H23 | 0.666
NCI-H322M | 0.637
NCI-H358 | 0.164
NCI-H441 | 0.257
NCI-H460 | 0.0611
NCI-H520 | 0.712
NCI-H596 | 0.519
NCI-H647 | 0.179
NCI-H650 | 1.04
NCI-H661 | 0.948
NCI-H838 | 0.254
NCI-H1355 | 1.03
NCI-H1395 | 0.873
NCI-H1437 | 0.352
NCI-H1651 | 0.649
NCI-H1666 | 0.914
NCI-H1734 | 0.436

Cell Line | relative viability
NCI-H1755 | 0.497
NCI-H1792 | 0.937
NCI-H1915 | 0.516
NCI-H1944 | 0.664
NCI-H1975 | 0.31
NCI-H1993 | 0.502
NCI-H2009 | 1.05
NCI-H2023 | 0.247
NCI-H2085 | 0.941
NCI-H2087 | 0.656
NCI-H2126 | 0.702
NCI-H2347 | 0.44
NCI-H2405 | 1.14
NCI-H3122 | 0.198
PC-3 [JPC-3] | 1.1
PC-14 | 0.14
RERF-LC-KJ | 0.51

same assay, conditions: first compound 0.01 µM

Cell Line | relative viability
NCI-H23 | 0.508
NCI-H322M | 0.64
NCI-H358 | 0.173
NCI-H441 | 0.244
NCI-H460 | 0.0649
NCI-H520 | 0.568
NCI-H596 | 0.421
NCI-H647 | 0.126
NCI-H650 | 1.27
NCI-H661 | 0.902
NCI-H838 | 0.246
NCI-H1355 | 1.08
NCI-H1395 | 0.756
NCI-H1437 | 0.334
NCI-H1651 | 0.536
NCI-H1666 | 0.898
NCI-H1734 | 0.432

Cell Line | relative viability
NCI-H1755 | 0.475
NCI-H1792 | 0.773
NCI-H1915 | 0.578
NCI-H1944 | 0.628
NCI-H1975 | 0.224
NCI-H1993 | 0.574
NCI-H2009 | 1.04
NCI-H2023 | 0.227
NCI-H2085 | 0.968
NCI-H2087 | 0.57
NCI-H2126 | 0.678
NCI-H2347 | 0.423
NCI-H2405 | 1.04
NCI-H3122 | 0.207
PC-3 [JPC-3] | 1.23
PC-14 | 0.197
RERF-LC-KJ | 0.489

same assay, conditions: first compound 0.03162 µM

Cell Line | relative viability
NCI-H23 | 0.165
NCI-H322M | 0.657
NCI-H358 | 0.136
NCI-H441 | 0.134
NCI-H460 | 0.0671
NCI-H520 | 0.169
NCI-H596 | 0.329
NCI-H647 | 0.0407
NCI-H650 | 0.781
NCI-H661 | 0.903
NCI-H838 | 0.209
NCI-H1355 | 1
NCI-H1395 | 0.33
NCI-H1437 | 0.273
NCI-H1651 | 0.197
NCI-H1666 | 0.799
NCI-H1734 | 0.366

Cell Line | relative viability
NCI-H1755 | 0.37
NCI-H1792 | 0.49
NCI-H1915 | 0.59
NCI-H1944 | 0.563
NCI-H1975 | 0.123
NCI-H1993 | 0.518
NCI-H2009 | 0.868
NCI-H2023 | 0.141
NCI-H2085 | 0.54
NCI-H2087 | 0.0837
NCI-H2126 | 0.617
NCI-H2347 | 0.403
NCI-H2405 | 0.898
NCI-H3122 | 0.189
PC-3 [JPC-3] | 0.642
PC-14 | 0.0596
RERF-LC-KJ | 0.368

same assay, conditions: first compound 0.1 µM

Cell Line | relative viability
NCI-H23 | 0.169
NCI-H322M | 0.421
NCI-H358 | 0.102
NCI-H441 | 0.133
NCI-H460 | 0.0245
NCI-H520 | 0.131
NCI-H596 | 0.244
NCI-H647 | 0.0343
NCI-H650 | 0.137
NCI-H661 | 0.415
NCI-H838 | 0.136
NCI-H1355 | 0.282
NCI-H1395 | 0.287
NCI-H1437 | 0.286
NCI-H1651 | 0.082
NCI-H1666 | 0.562
NCI-H1734 | 0.19

Cell Line | relative viability
NCI-H1755 | 0.311
NCI-H1792 | 0.0813
NCI-H1915 | 0.0792
NCI-H1944 | 0.242
NCI-H1975 | 0.115
NCI-H1993 | 0.351
NCI-H2009 | 0.124
NCI-H2023 | 0.0695
NCI-H2085 | 0.301
NCI-H2087 | 0.0365
NCI-H2126 | 0.424
NCI-H2347 | 0.272
NCI-H2405 | 0.205
NCI-H3122 | 0.154
PC-3 [JPC-3] | 0.294
PC-14 | 0.0657
RERF-LC-KJ | 0.248

compound: C[C@@H](Oc1cc(-c2cnn(C3CCNCC3)c2)cnc1N)c1c(Cl)ccc(F)c1Cl [Crizotinib] + C[C@]1(O)C[C@@H](c2nc(-c3ccc4ccc(-c5ccccc5)nc4c3)c3c(N)nccn32)C1 [Linsitinib] (partner 1 µM); assay: as above; conditions: first compound 0.01 µM
Outline: as §1

Cell Line | relative viability
NCI-H23 | 0.557
NCI-H322M | 0.811
NCI-H358 | 0.663
NCI-H441 | 0.564
NCI-H460 | 0.736
NCI-H520 | 0.831
NCI-H596 | 0.971
NCI-H647 | 1.2
NCI-H650 | 0.858
NCI-H661 | 0.552
NCI-H838 | 0.938
NCI-H1355 | 0.869
NCI-H1395 | 1.07
NCI-H1437 | 0.996
NCI-H1651 | 1.01
NCI-H1666 | 0.825
NCI-H1734 | 0.888

Cell Line | relative viability
NCI-H1755 | 0.872
NCI-H1792 | 0.519
NCI-H1915 | 1.02
NCI-H1944 | 1.11
NCI-H1975 | 0.926
NCI-H1993 | 0.711
NCI-H2009 | 1.17
NCI-H2023 | 0.734
NCI-H2085 | 0.8
NCI-H2087 | 0.966
NCI-H2126 | 0.73
NCI-H2347 | 0.913
NCI-H2405 | 0.885
NCI-H3122 | 1.02
PC-3 [JPC-3] | 0.935
PC-14 | 0.913
RERF-LC-KJ | 0.972

same assay, conditions: first compound 0.03162 µM

Cell Line | relative viability
NCI-H23 | 0.642
NCI-H322M | 0.954
NCI-H358 | 0.658
NCI-H441 | 0.498
NCI-H460 | 0.84
NCI-H520 | 0.97
NCI-H596 | 1.16
NCI-H647 | 0.92
NCI-H650 | 0.868
NCI-H661 | 0.472
NCI-H838 | 1.05
NCI-H1355 | 0.82
NCI-H1395 | 1.17
NCI-H1651 | 1.01
NCI-H1666 | 0.877
NCI-H1734 | 0.843
NCI-H1792 | 0.558
NCI-H1915 | 1.09
NCI-H1944 | 1.07
NCI-H1975 | 1.05
NCI-H1993 | 0.729
NCI-H2009 | 1.17
NCI-H2023 | 0.592
NCI-H2085 | 1.03
NCI-H2087 | 0.976
NCI-H2126 | 0.724
NCI-H2405 | 0.897
NCI-H3122 | 1.03
PC-3 [JPC-3] | 0.977
RERF-LC-KJ | 0.94

same assay, conditions: first compound 0.1 µM

Cell Line | relative viability
NCI-H23 | 0.619
NCI-H322M | 1
NCI-H358 | 0.744
NCI-H441 | 0.575
NCI-H460 | 0.718
NCI-H520 | 0.985
NCI-H596 | 1.07
NCI-H647 | 1.12
NCI-H661 | 0.521
NCI-H1355 | 0.811
NCI-H1395 | 0.944
NCI-H1437 | 1.03
NCI-H1651 | 0.955
NCI-H1666 | 0.774
NCI-H1734 | 0.851
NCI-H1755 | 1.07

Cell Line | relative viability
NCI-H1792 | 0.586
NCI-H1915 | 1.1
NCI-H1944 | 1.2
NCI-H1975 | 0.91
NCI-H1993 | 0.71
NCI-H2009 | 1.24
NCI-H2023 | 0.6
NCI-H2085 | 1
NCI-H2087 | 0.942
NCI-H2126 | 0.706
NCI-H2347 | 1.03
NCI-H2405 | 0.882
NCI-H3122 | 1.08
PC-3 [JPC-3] | 1.04
PC-14 | 0.974

same assay, conditions: first compound 0.3162 µM

Cell Line | relative viability
NCI-H322M | 0.96
NCI-H358 | 0.779
NCI-H441 | 0.382
NCI-H460 | 0.847
NCI-H520 | 1.04
NCI-H596 | 1.19
NCI-H647 | 1.04
NCI-H650 | 0.596
NCI-H661 | 0.582
NCI-H838 | 0.882
NCI-H1355 | 0.799
NCI-H1395 | 1.01
NCI-H1437 | 0.996
NCI-H1651 | 1.06
NCI-H1666 | 0.871
NCI-H1755 | 0.964
NCI-H1792 | 0.473
NCI-H1944 | 1.18
NCI-H1975 | 1.07
NCI-H1993 | 0.76
NCI-H2009 | 1.17
NCI-H2023 | 0.486
NCI-H2085 | 0.926
NCI-H2087 | 0.92
NCI-H2126 | 0.691
NCI-H2405 | 1.04
NCI-H3122 | 1.01
PC-3 [JPC-3] | 0.9
PC-14 | 0.905
RERF-LC-KJ | 0.935

same assay, conditions: first compound 1 µM

Cell Line | relative viability
NCI-H23 | 0.774
NCI-H322M | 0.903
NCI-H358 | 0.899
NCI-H441 | 0.551
NCI-H520 | 1.05
NCI-H596 | 1.15
NCI-H647 | 1.2
NCI-H650 | 0.894
NCI-H661 | 0.759
NCI-H838 | 1.01
NCI-H1355 | 0.867
NCI-H1395 | 1.03
NCI-H1437 | 1.04
NCI-H1651 | 1.07
NCI-H1666 | 0.665
NCI-H1734 | 0.82

Cell Line | relative viability
NCI-H1755 | 0.978
NCI-H1792 | 0.559
NCI-H1915 | 1.1
NCI-H1944 | 1.21
NCI-H1975 | 1.01
NCI-H1993 | 0.71
NCI-H2009 | 1.17
NCI-H2023 | 0.515
NCI-H2085 | 0.836
NCI-H2087 | 1.07
NCI-H2126 | 0.717
NCI-H2347 | 0.993
NCI-H2405 | 0.919
NCI-H3122 | 1
PC-3 [JPC-3] | 0.973
PC-14 | 1.02
